Measurements from US10067136B1, “Photoactivatable probes and uses thereof” (University of South Florida, priority 2016, dated 2018).
Entries after “also recorded” stand apart in the source; their conditions may differ.

Key:
[1] = Ambient light stability evaluation (fluorescent lamps, 19F NMR); format: physicochemical; conditions: d4-methanol; for photodecomposition under ambient light (in words): after 7 days of light exposure; for diazirine remaining intact after ambient light exposure: one month, two linear fluorescent lamps (28 W each), room temperature
Description: (§1) Photolabel (1, 2, or 3) (1 mg) was dissolved in d4-methanol (500 μL) in a 5 mm NMR tube. The ^19F NMR of this solution was recorded before any exposure to ambient light as the zero day reading. The NMR tube was then placed directly under two linear fluorescent lamps (28 W each) at room temperature and the ^19F NMR of this solution was recorded periodically (4, 7, 14, 18, 26 and 31 days). The analysis was repeated in duplicate.

[2] = Thermal stability evaluation in the dark (19F NMR); format: physicochemical; conditions: d4-methanol solution, room temperature (21° C.), one month
Description: as §1, with “in the dark” for “directly under two linear fluorescent lamps (28 W each)”, “(8,” for “(4, 7,”, “14,” for “14, 18, 26”

concanavalin A (Con A) [3] = target: T1, concanavalin A (Con A) (Canavalia ensiformis, UniProt P02866); test: Photolabeling of Con A, Coomassie gel and anti-biotin western blot; format: binding; conditions: for photolabeling of Con A upon UV photoactivation (in words): UV light >320 nm, 10 minutes, anti-biotin peroxidase western blot; for labeling of Con A without UV photoactivation (in words): incubated with Con A, not exposed to UV light
Description: To a solution of concanavalin A (Con A) (0.2 mg) in acetate buffer (10 mM, pH=5 with calcium chloride (1 mM), manganese (II) chloride (1 mM) and sodium chloride (200 mM)) (1 ml), the photoaffinity label (20, 21 or 22) solution (10 mM) in methanol (3 μL) was added at 0° C. This solution was bubbled with a gentle stream of nitrogen gas, using a clean needle, for 5 minutes and incubated in the dark at 0° C. for 30 minutes. […] The resultant sample can be stored at −80° C. and used for SDS gel, Western blot analysis or mass spectroscopic analysis.
Upon running the SDS gel, the PVDF membrane and gel was shaken in transfer buffer for 15 minutes. The holder cassette was placed opened in a shallow vessel such that the black panel was lying flat on the bottom of the vessel. Fiber pad presoaked with transfer buffer was then placed on the black panel of the holder cassette and a presoaked filter paper was placed over it. The equilibrated gel was carefully placed over the filter paper to avoid any air bubble getting trapped between the layers. Then the PVDF membrane was laid over the gel with care towards avoiding any air pocket between the layers. A presoaked filter paper was placed over the membrane followed by a filter pad. The resultant sandwich was firmly secured and the cassette was closed. The cassette holder was placed in the tank such that the black panel of the holder was on the black panel electrode. Insert the ice pack on the other side of the tank and place the tank on a magnetic stirrer. The tank was filled to the top row of circles in the cassette with transfer buffer. The magnetic stirrer was turned on and the lid was closed with black wire to black panel, red wire to red panel. The unit was connected to a power supply and ran at constant voltage of 70 V for 60 minutes. The membrane was carefully removed and the membrane was blocked with 5% (w/v) NFDM (non-fat dry milk) in tris saline Tween-20 buffer (TBS-T) for 1 hour at room temperature. The blocked membrane was then incubated overnight on a shaker at 4° C. with anti-biotin-peroxidase antibody in TBS-T buffer containing 1% NFDM. The membrane was washed five times (10 minutes each time on a shaker) with TBS-T buffer. The membrane was incubated for 5 minutes at room temperature with SuperSignal West Pico chemiluminescence substrate as per manufacturer's protocol. The resultant chemiluminescence of the bands was recorded on a photographic film and developed using a film processor.

[4] = Near UV-visible absorption spectra; format: physicochemical; conditions: near-UV/Vis, 2.5 mM solution in methanol; relative to the conventional photolabel
concanavalin A (Con A) [5] = target: T1, concanavalin A (Con A); test: Photolabeling of Con A in the presence of mannose (competitive binding); conditions: competing mannose at 100 fold or 1000 fold, western blot
Description: For the competitive binding studies with mannose, to a solution of Con A (0.2 mg) in acetate buffer (10 mM, pH=5 with calcium chloride (1 mM), manganese (II) chloride (1 mM) and sodium chloride (200 mM)) (1 ml) a aqueous solution of mannose (30 μL of 100 mM solution for 100 fold [or] 30 μL of 1 M solution for 1000 fold) was added and mixed. To this the photoaffinity label (20, 21 or 22) solution (10 mM) in methanol (3 μL) was added at 0° C. This solution was bubbled with a gentle stream of nitrogen gas, using a clean needle, for 5 minutes and incubated in the dark at 0° C. for 30 minutes. The sample was then transferred to a disposable cuvette and photoactivated for 10 minutes using a 150 W XBO xenon short-arc UV lamp fitted with a filter that cuts off light with wavelengths less than 320 nm. The resultant sample can be stored at −80° C. and used for SDS gel and Western blot analysis.
Upon running the SDS gel, the PVDF membrane and gel was shaken in transfer buffer for 15 minutes. The holder cassette was placed opened in a shallow vessel such that the black panel was lying flat on the bottom of the vessel. Fiber pad presoaked with transfer buffer was then placed on the black panel of the holder cassette and a presoaked filter paper was placed over it. […] The resultant chemiluminescence of the bands was recorded on a photographic film and developed using a film processor.

Structure (SMILES) | photodecomposition under ambient light (in words) [1] | diazirine remaining intact after ambient light exposure [1] | decomposition / stability in the dark (in words) [2] | photolabeling of Con A upon UV photoactivation (in words) (concanavalin A (Con A) [3]) | decrease of absorption coefficient ϵ [4] | labeling of Con A without UV photoactivation (in words) (concanavalin A (Con A) [3]) | photolabeling / crosslinking of Con A in the presence of mannose (in words) (concanavalin A (Con A) [5])
OCc1ccc(C2(C(F)(F)F)N=N2)cn1 [compound 1, (5-(3-(trifluoromethyl)-3H-diazirin-3-yl)pyridin-2-yl)methanol] | negligibly photodecomposed | 79% | stable | as efficiently as the conventional diazirine photolabel 3 | approximately 15% |  | 
OCc1ncc(C2(C(F)(F)F)N=N2)cn1 [compound 2, (5-(3-(trifluoromethyl)-3H-diazirin-3-yl)pyrimidin-2-yl) methanol] | virtually unaffected | 90% | stable | as efficiently as the conventional diazirine photolabel 3 | ~30% |  | 
OCc1ccc(C2(C(F)(F)F)N=N2)cc1 [compound 3, (4-(3-(trifluoromethyl)-3H-diazirin-3-yl)phenyl)methanol, reference compound] | significant photodecomposition | 27% | stable |  |  |  | 
O=C(CCCCC1SCC2NC(=O)NC21)NCCCCCCN(Cc1ccc(C2(C(F)(F)F)N=N2)cc1)C(=O)CO[C@H]1O[C@H](CO)[C@@H](O)[C@H](O)[C@@H]1O (stereo partly drawn) [compound 20, 5-(2-oxohexahydro-1H-thieno[3,4-d]imidazol-4-yl)-N-(6-(N-(4-(3-(trifluoromethyl)-3H-diazirin-3-yl)benzyl)-2-(((2S,3S,4S,5S,6R)-3,4,5-trihydroxy-6-(hydroxymethyl)tetrahydro-2H-pyran-2-yl)oxy)acetamido)hexyl)pentanamide] |  |  |  | successfully labeled the protein target upon photoactivation |  | detected only with coomassie stain and not in the western blot analysis | 
O=C(CCCCC1SCC2NC(=O)NC21)NCCCCCCN(Cc1ccc(C2(C(F)(F)F)N=N2)cn1)C(=O)CO[C@H]1O[C@H](CO)[C@@H](O)[C@H](O)[C@@H]1O (stereo partly drawn) [compound 21, 5-(2-oxohexahydro-1H-thieno[3,4-d]imidazol-4-yl)-N-(6-(N-((5-(3-(trifluoromethyl)-3H-diazirin-3-yl)pyridin-2-yl)methyl)-2-(((2S,3S,4S,5S,6R)-3,4,5-trihydroxy-6-(hydroxymethyl)tetrahydro-2H-pyran-2-yl)oxy)acetamido)hexyl)pentanamide] |  |  |  | successfully labeled the protein target upon photoactivation; also recorded: as effectively as the conventional phenyl derived photolabel 20 |  | detected only with coomassie stain and not in the western blot analysis | correlates indirectly to the concentration of competing mannose ligand
O=C(CCCCC1SCC2NC(=O)NC21)NCCCCCCN(Cc1ncc(C2(C(F)(F)F)N=N2)cn1)C(=O)CO[C@H]1O[C@H](CO)[C@@H](O)[C@H](O)[C@@H]1O (stereo partly drawn) [compound 22, 5-(2-oxohexahydro-1H-thieno[3,4-d]imidazol-4-yl)-N-(6-(N-((5-(3-(trifluoromethyl)-3H-diazirin-3-yl)pyrimidin-2-yl)methyl)-2-(((2S,3S,4S,5S,6R)-3,4,5-trihydroxy-6-(hydroxymethyl)tetrahydro-2H-pyran-2-yl)oxy)acetamido)hexyl)pentanamide] |  |  |  | successfully labeled the protein target upon photoactivation; also recorded: as effectively as the conventional phenyl derived photolabel 20 |  | detected only with coomassie stain and not in the western blot analysis | correlates indirectly to the concentration of competing mannose ligand
